ChEMBL document CHEMBL1909046, “DrugMatrix in vitro pharmacology data”

Legend:
[1] = target: Matrix metalloproteinase-9 (Homo sapiens, UniProt P14780); assay type: cell-based;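 also: inhibition of isolated MMP-9 enzyme activity toward a synthetic peptide substrate, from the DrugMatrix protease screening panel; in other assays of this panel Not Active means under 50% inhibition at 10 µM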
Endothelin-1 receptor = target: T1, Endothelin-1 receptor (Homo sapiens, UniProt P25101); assay type: cell membranes, Membrane; details: cho-k1; also: in other assays of this panel Not Active means under 50% inhibition at 10 µM
T1 sequence (P25101 whole entry): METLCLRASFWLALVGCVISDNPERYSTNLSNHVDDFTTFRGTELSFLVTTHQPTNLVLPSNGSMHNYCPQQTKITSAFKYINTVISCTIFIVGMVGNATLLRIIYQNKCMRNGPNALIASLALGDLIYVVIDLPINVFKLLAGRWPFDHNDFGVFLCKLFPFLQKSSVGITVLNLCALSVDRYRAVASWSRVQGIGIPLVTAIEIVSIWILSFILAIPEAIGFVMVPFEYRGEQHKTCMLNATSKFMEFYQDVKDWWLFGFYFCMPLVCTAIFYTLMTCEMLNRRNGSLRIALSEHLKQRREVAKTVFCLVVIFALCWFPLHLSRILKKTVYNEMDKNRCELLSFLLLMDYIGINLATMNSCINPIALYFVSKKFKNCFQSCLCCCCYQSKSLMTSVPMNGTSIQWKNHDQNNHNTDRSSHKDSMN

[2] = target: T2, 3-hydroxy-3-methylglutaryl-coenzyme A reductase (Homo sapiens, UniProt P04035); parameters: species or system Escherichia coli;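 also: enzyme inhibition assay of HMG-CoA reductase using radiolabeled [14C]HMG-CoA as substrate; in other assays of this panel Not Active means under 50% inhibition at 10 µM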
T2 sequence (P04035 whole entry): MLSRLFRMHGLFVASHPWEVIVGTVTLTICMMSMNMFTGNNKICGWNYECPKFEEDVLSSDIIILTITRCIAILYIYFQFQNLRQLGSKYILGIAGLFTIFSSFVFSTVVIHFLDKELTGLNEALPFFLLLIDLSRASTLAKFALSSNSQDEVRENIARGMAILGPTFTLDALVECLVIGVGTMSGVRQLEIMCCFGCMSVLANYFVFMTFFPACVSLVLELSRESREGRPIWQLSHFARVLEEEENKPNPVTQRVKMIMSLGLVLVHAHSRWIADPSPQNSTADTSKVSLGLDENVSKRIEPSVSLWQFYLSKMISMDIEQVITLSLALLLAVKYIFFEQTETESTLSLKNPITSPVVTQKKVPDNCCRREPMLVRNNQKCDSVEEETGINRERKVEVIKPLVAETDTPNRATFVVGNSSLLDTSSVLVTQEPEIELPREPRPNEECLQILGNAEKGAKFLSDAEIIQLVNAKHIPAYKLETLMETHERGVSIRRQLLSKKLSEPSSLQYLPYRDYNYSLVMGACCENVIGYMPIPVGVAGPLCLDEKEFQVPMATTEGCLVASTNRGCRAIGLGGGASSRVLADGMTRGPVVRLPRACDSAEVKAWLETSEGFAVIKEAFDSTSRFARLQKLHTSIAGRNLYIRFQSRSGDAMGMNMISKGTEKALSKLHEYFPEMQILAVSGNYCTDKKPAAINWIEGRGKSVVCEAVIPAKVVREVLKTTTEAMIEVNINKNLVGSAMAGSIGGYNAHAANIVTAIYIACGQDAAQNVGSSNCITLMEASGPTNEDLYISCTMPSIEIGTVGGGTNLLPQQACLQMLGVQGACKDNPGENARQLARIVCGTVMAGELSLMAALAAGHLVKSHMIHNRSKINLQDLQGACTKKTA

[3] = target: T3, Alpha-1B adrenergic receptor (Rattus norvegicus, UniProt P15823); assay: DRUGMATRIX: Alpha-1B adrenergic receptor radioligand binding (ligand: prazosin); assay type: cell membranes, Wistar, Liver, Membrane; details: Not Active = under 50% inhibition at 10 µM
T3 sequence (P15823 whole entry): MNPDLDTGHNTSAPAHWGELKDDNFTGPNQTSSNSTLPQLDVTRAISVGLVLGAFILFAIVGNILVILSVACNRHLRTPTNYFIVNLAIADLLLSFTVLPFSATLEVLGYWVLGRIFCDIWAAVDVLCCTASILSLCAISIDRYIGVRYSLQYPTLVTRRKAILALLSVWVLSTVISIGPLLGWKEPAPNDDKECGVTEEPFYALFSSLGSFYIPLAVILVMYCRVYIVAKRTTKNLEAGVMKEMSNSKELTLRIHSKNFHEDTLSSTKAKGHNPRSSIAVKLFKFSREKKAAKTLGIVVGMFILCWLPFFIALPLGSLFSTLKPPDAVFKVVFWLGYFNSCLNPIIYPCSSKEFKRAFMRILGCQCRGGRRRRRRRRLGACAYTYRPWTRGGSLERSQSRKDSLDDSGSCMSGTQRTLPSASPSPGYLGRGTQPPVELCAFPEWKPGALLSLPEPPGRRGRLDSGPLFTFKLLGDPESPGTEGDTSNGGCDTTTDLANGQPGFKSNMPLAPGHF

[4] = DRUGMATRIX: Atrial Natriuretic Factor (ANF) radioligand binding (ligand: [125I] ANF (rat)); assay type: cell membranes, Cavia porcellus, Dunkin-Hartley, Adrenal gland, Membrane; details: Not Active = under 50% inhibition at 10 µM
[5] = target: T4, Muscarinic acetylcholine receptor M4 (Homo sapiens, UniProt P08173); assay type: cell membranes, CHO-K1, Membrane; details: cho-k1; also: in other assays of this panel Not Active means under 50% inhibition at 10 µM
T4 sequence (P08173 whole entry): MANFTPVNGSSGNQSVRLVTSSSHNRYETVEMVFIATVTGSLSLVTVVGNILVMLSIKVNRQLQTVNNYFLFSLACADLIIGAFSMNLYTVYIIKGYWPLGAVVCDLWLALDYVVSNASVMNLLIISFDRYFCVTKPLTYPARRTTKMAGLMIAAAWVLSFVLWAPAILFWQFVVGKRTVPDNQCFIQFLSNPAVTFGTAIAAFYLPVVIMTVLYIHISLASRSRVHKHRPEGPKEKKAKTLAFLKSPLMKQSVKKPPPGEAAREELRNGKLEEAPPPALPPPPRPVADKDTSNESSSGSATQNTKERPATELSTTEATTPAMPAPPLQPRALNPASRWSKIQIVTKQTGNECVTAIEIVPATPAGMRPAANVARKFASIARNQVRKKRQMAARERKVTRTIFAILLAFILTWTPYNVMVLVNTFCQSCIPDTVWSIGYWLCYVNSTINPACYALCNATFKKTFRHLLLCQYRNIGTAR

Cytochrome P450 2C19 = Cytochrome P450 2C19 (Homo sapiens, UniProt P33261); details: bti-tn-5b1-4; also: in other assays of this panel Not Active means under 50% inhibition at 10 µM
Cytochrome P450 2C19, sequence (P33261 whole entry): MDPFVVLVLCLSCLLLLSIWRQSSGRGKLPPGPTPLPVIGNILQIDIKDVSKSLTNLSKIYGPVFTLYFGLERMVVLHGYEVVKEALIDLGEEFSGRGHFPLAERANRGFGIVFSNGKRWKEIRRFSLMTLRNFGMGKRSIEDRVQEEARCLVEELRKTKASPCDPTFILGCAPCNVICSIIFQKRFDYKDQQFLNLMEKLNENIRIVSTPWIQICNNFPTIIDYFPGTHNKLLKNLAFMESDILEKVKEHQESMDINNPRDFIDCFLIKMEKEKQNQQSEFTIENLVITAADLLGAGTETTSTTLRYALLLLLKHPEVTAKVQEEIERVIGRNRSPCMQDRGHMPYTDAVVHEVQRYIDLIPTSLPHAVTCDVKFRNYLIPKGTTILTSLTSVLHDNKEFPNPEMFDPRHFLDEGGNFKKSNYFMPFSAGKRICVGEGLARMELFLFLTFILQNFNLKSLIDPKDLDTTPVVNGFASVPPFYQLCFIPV

Matrix metalloproteinase-9, sequence (P14780 whole entry): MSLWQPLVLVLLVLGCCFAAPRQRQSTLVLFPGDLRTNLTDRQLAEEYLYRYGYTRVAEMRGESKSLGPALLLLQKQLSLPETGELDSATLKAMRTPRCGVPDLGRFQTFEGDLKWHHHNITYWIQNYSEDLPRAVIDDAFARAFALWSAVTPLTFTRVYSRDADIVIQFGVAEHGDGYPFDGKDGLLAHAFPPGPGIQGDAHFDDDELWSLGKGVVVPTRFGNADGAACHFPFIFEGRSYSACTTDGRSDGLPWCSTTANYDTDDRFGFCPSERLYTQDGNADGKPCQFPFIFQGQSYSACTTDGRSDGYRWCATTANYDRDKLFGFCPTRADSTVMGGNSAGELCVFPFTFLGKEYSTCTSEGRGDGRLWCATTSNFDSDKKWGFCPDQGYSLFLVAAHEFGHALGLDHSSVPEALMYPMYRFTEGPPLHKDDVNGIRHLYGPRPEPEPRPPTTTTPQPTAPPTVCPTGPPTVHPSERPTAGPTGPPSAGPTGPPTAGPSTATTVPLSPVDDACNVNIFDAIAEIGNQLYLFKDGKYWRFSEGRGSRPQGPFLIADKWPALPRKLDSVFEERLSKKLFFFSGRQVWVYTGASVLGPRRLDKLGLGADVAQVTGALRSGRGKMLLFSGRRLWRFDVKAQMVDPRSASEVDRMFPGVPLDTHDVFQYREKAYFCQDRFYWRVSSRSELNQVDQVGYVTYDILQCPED

COc1ccc(Cl)cc1C(=O)NCCc1ccc(S(=O)(=O)NC(=O)NC2CCCCC2)cc1 [GLYBURIDE]
Not Active: IC50 [1] | IC50 (Endothelin-1 receptor) | IC50 [2] | IC50 [3] | IC50 [4] | Ki [4] | IC50 [5] | IC50 (Cytochrome P450 2C19) | Ki (Cytochrome P450 2C19)

O=C(O)CO [GLYCOLIC ACID]
Not Active: IC50 [1] | IC50 (Endothelin-1 receptor) | IC50 [2] | IC50 [3] | IC50 [4] | Ki [4] | IC50 [5] | IC50 (Cytochrome P450 2C19) | Ki (Cytochrome P450 2C19)

Clc1cc(Cl)c(OCC#CI)cc1Cl [HALOPROGIN]
Not Active: IC50 [1] | IC50 (Endothelin-1 receptor) | IC50 [2] | IC50 [3] | IC50 [4] | Ki [4] | IC50 [5] | IC50 (Cytochrome P450 2C19) | Ki (Cytochrome P450 2C19)

COC(=O)C[C@](O)(CCC(C)(C)O)C(=O)O[C@@H]1C(OC)=C[C@]23CCCN2CCc2cc4c(cc2[C@H]13)OCO4 [HARRINGTONINE]
Not Active: IC50 [1] | IC50 (Endothelin-1 receptor) | IC50 [2] | IC50 [3] | IC50 [4] | Ki [4] | IC50 [5] | IC50 (Cytochrome P450 2C19) | Ki (Cytochrome P450 2C19)

CC(=O)[C@]1(O)Cc2c(O)c3c(c(O)c2[C@@H](O[C@H]2C[C@H](N)[C@H](O)[C@H](C)O2)C1)C(=O)c1ccccc1C3=O [IDARUBICIN]
Not Active: IC50 [1] | IC50 (Endothelin-1 receptor) | IC50 [2] | IC50 [3] | IC50 [4] | Ki [4] | IC50 [5] | IC50 (Cytochrome P450 2C19) | Ki (Cytochrome P450 2C19)

CC(C)Cn1cnc2c(N)nc3ccccc3c21 [IMIQUIMOD]
Not Active: IC50 [1] | IC50 (Endothelin-1 receptor) | IC50 [2] | IC50 [3] | IC50 [4] | Ki [4] | IC50 [5] | IC50 (Cytochrome P450 2C19) | Ki (Cytochrome P450 2C19)

O=C(NCCN1CCOCC1)c1ccc(Cl)cc1 [MOCLOBEMIDE]
Not Active: IC50 [1] | IC50 (Endothelin-1 receptor) | IC50 [2] | IC50 [3] | IC50 [4] | Ki [4] | IC50 [5] | IC50 (Cytochrome P450 2C19) | Ki (Cytochrome P450 2C19)

C=CCN1CC[C@]23c4c5ccc(O)c4O[C@H]2/C(=N/N=C2\CC[C@@]4(O)[C@H]6Cc7ccc(O)c8c7[C@@]4(CCN6CC=C)[C@H]2O8)CC[C@@]3(O)[C@H]1C5 [NALOXONAZINE]
Not Active: IC50 [1] | IC50 (Endothelin-1 receptor) | IC50 [2] | IC50 [3] | IC50 [4] | Ki [4] | IC50 [5] | IC50 (Cytochrome P450 2C19) | Ki (Cytochrome P450 2C19)

Cc1ccnc2c1NC(=O)c1cccnc1N2C1CC1 [NEVIRAPINE]
Not Active: IC50 [1] | IC50 (Endothelin-1 receptor) | IC50 [2] | IC50 [3] | IC50 [4] | Ki [4] | IC50 [5] | IC50 (Cytochrome P450 2C19) | Ki (Cytochrome P450 2C19)

O=C1CN(/N=C/c2ccc([N+](=O)[O-])o2)C(=O)N1 [NITROFURANTOIN]
Not Active: IC50 [1] | IC50 (Endothelin-1 receptor) | IC50 [2] | IC50 [3] | IC50 [4] | Ki [4] | IC50 [5] | IC50 (Cytochrome P450 2C19) | Ki (Cytochrome P450 2C19)

C#C[C@]1(O)CC[C@H]2[C@@H]3CCC4=CC(=O)CC[C@@H]4[C@H]3CC[C@@]21C [NORETHINDRONE]
Not Active: IC50 [1] | IC50 (Endothelin-1 receptor) | IC50 [2] | IC50 [3] | IC50 [4] | Ki [4] | IC50 [5] | IC50 (Cytochrome P450 2C19) | Ki (Cytochrome P450 2C19)

O=C(O)CCc1nc(-c2ccccc2)c(-c2ccccc2)o1 [OXAPROZIN]
Not Active: IC50 [1] | IC50 (Endothelin-1 receptor) | IC50 [2] | IC50 [3] | IC50 [4] | Ki [4] | IC50 [5] | IC50 (Cytochrome P450 2C19) | Ki (Cytochrome P450 2C19)

NC(=O)NC(=O)Cc1ccccc1 [PHENACEMIDE]
Not Active: IC50 [1] | IC50 (Endothelin-1 receptor) | IC50 [2] | IC50 [3] | IC50 [4] | Ki [4] | IC50 [5] | IC50 (Cytochrome P450 2C19) | Ki (Cytochrome P450 2C19)

O=C1c2ccccc2C(=O)C1c1ccccc1 [PHENINDIONE]
Not Active: IC50 [1] | IC50 (Endothelin-1 receptor) | IC50 [2] | IC50 [3] | IC50 [4] | Ki [4] | IC50 [5] | IC50 (Cytochrome P450 2C19) | Ki (Cytochrome P450 2C19)
